Measurements taken from paper PMC9490060, “Synthesis and evaluation of anticancer activity of quillaic acid derivatives: A cell cycle arrest and apoptosis inducer through NF-κB and MAPK pathways” (Frontiers in Chemistry, 2022).

Tests used:
[1] = system: BEL7402 (human hepatocellular carcinoma cell line); assay: MTT anti-proliferative assay, BEL7402; assay type: cell-based; details: Homo sapiens, Bel-7402, 48 h incubation, means ± SD, n = 3
Description: (§1) The anti-proliferative activities against five human cancer cell lines, including HCT116 (human colorectal cancer cell line), MCF-7 (human breast cancer cell line), SW620 (human colorectal cancer cell line), BEL7402 (human hepatocellular carcinoma cell line), and HepG2 (human hepatocellular carcinoma cell line) were established for all the target compounds using the MTT assay.
(§2) The propidium iodide (PI) and Annexin V-FITC apoptosis detection kit were purchased from Invitrogen (Eugene, OR, United States). 3-(4,5-Dimethylthiazol-2-yl)-2,5-diphenyl-2H-tetrazolium bromide (MTT) was purchased from Sigma-Aldrich Co. (St. Louis, MO, United States). All human cell lines were used in this study, colorectal cancer cell HCT116, colorectal cancer cell SW620, breast cancer cell MCF-7, liver hepatocellular carcinoma cell BEL7402, liver hepatocellular carcinoma HepG2 and normal liver cell L02 were initially purchased from American Type Culture Collection (ATCC, Manassas, VA, United States). RPMI-1640 media, Dulbecco’s modified Eagle’s medium (DMEM), and foetal bovine serum (FBS) were provided from Gibco Company (Grand Island, NY, United States). Cell line MCF-7 and HepG2 were cultivated in DMEM containing 10% (v/v) heat-inactivated FBS, 100 units/ml penicillin and […] streptomycin (Grand Island, NY, United States). Cell lines HCT116, BEL7402, SW620, and L02 were cultivated in RPMI 1640 medium containing 10% (v/v) heat-inactivated FBS, 100 units/ml penicillin, and […] streptomycin. The cells were incubated at 37°C under a 5% CO2 and 90% relative humidity (RH) atmosphere.
(§3) Stock solutions were prepared by diluting target compounds in DMSO at concentrations (1.25, 2.5, 5, and 10 mM). The stock solution was then diluted (1.25, 2.5, 5, and 10 μM) with culture medium, and the concentration of DMSO was controlled not to exceed 0.1%.
(§4) Place the cells in a 96-well plate at an appropriate density to ensure exponential growth (1 × 10^4–1.2×10^4 cells per well) throughout the experiment, and then allow the cells to adhere for 24 h. The cells were then treated with continuous concentrations of each compound (1.25, 2.5, 5, and 10 μM) for 48 h. After 48 h of incubation, 15 μl of MTT solution was added to each well, and the final concentration was 2 mg/ml. Then incubate for another 4 h. After incubation, remove the MTT solution and add […] of DMSO to each well for staining. Shake vigorously for 10 min at room temperature to ensure complete dissolution. The optical density (OD) was read on a microplate reader (ELx 800, BioTek, Highland Park, Winooski, VT, United States) with a wavelength of 492 nm, and then the data was analyzed.

[2] = system: HepG2 (human hepatocellular carcinoma cell line); assay: MTT anti-proliferative assay, HepG2; assay type: cell-based; details: Homo sapiens, HepG2, 48 h incubation, means ± SD, n = 3
Description: as §1, §2, §3, §4

[3] = system: MCF-7 (human breast cancer cell line); assay: MTT anti-proliferative assay, MCF-7; assay type: cell-based; details: Homo sapiens, MCF7, 48 h incubation, means ± SD, n = 3
Description: as §1, §2, §3, §4

[4] = system: SW620 (human colorectal cancer cell line); assay: MTT anti-proliferative assay, SW620; assay type: cell-based; details: Homo sapiens, SW-620, 48 h incubation, means ± SD, n = 3
Description: as §1, §2, §3, §4

[5] = system: HCT116 (human colorectal cancer cell line); assay: MTT anti-proliferative assay, HCT116; assay type: cell-based; details: Homo sapiens, HCT-116, 48 h incubation, means ± SD, n = 3
Description: as §1, §2, §3, §4

| SMILES | melting point [°C] | IC50 [1] [µM] | IC50 [2] [µM] | IC50 [3] [µM] | IC50 [4] [µM] | IC50 [5] [µM] |
| --- | --- | --- | --- | --- | --- | --- |
| CC1(C)CC[C@]2(C(=O)OCc3cn(-c4ccc([N+](=O)[O-])cc4)nn3)[C@H](O)C[C@]3(C)C(=CC[C@@H]4[C@@]5(C)CC[C@H](O)[C@@](C)(C=O)[C@@H]5CC[C@]43C)[C@@H]2C1 [Compound A10, (1-(4-nitrophenyl)-1H-1,2,3-triazol-4-yl)methyl (4aR,5R,6aS,6bR,8aR,9S,10S,12aR,12bR,14bS)-9-formyl-5,10-dihydroxy-2,2,6a,6b,9,12a-hexamethyl-1,3,4,5,6,6a,6b,7,8,8a,9,10,11,12,12a,12b,13,14b-octadecahydropicene-4a (2H)-carboxylate] | 193 to 194 | > 10 | > 10 | > 10 | > 10 | > 10 |
| CC1(C)CC[C@]2(C(=O)OCc3nnc(-c4ccccc4)o3)[C@H](O)C[C@]3(C)C(=CC[C@@H]4[C@@]5(C)CC[C@H](O)[C@@](C)(C=O)[C@@H]5CC[C@]43C)[C@@H]2C1 [Compound B1, (5-phenyl-1,3,4-oxadiazol-2-yl)methyl (4aR,5R,6aS,6bR,8aR,9S,10S,12aR,12bR,14bS)-9-formyl-5,10-dihydroxy-2,2,6a,6b,9,12a-hexamethyl-1,3,4,5,6,6a,6b,7,8,8a,9,10,11,12,12a,12b,13,14b-octadecahydropicene-4a (2H)-carboxylate] | 130 to 132 | > 10 | > 10 | > 10 | > 10 | > 10 |
| CC1(C)CC[C@]2(C(=O)OCc3nnc(-c4ccc(Cl)cc4)o3)[C@H](O)C[C@]3(C)C(=CC[C@@H]4[C@@]5(C)CC[C@H](O)[C@@](C)(C=O)[C@@H]5CC[C@]43C)[C@@H]2C1 [Compound B3, (5-(4-chlorophenyl)-1,3,4-oxadiazol-2-yl)methyl (4aR,5R,6aS,6bR,8aR,9S,10S,12aR,12bR,14bS)-9-formyl-5,10-dihydroxy-2,2,6a,6b,9,12a-hexamethyl-1,3,4,5,6,6a,6b,7,8,8a,9,10,11,12,12a,12b,13,14b-octadecahydropicene-4a (2H)-carboxylate] | 132 to 134 | > 10 | > 10 | > 10 | 8.18 ± 1.85 | 5.01 ± 1.12 |
| COc1ccc(-c2nnc(COC(=O)[C@]34CCC(C)(C)C[C@H]3C3=CC[C@@H]5[C@@]6(C)CC[C@H](O)[C@@](C)(C=O)[C@@H]6CC[C@@]5(C)[C@]3(C)C[C@H]4O)o2)cc1 [Compound B4, (5-(4-methoxyphenyl)-1,3,4-oxadiazol-2-yl)methyl (4aR,5R,6aS,6bR,8aR,9S,10S,12aR,12bR,14bS)-9-formyl-5,10-dihydroxy-2,2,6a,6b,9,12a-hexamethyl-1,3,4,5,6,6a,6b,7,8,8a,9,10,11,12,12a,12b,13,14b-octadecahydropicene-4a (2H)-carboxylate] | 126 to 128 | 9.15 ± 2.21 | 8.38 ± 2.22 | > 10 | 7.23 ± 1.56 | 3.65 ± 1.06 |
| COc1cc(-c2nnc(COC(=O)[C@]34CCC(C)(C)C[C@H]3C3=CC[C@@H]5[C@@]6(C)CC[C@H](O)[C@@](C)(C=O)[C@@H]6CC[C@@]5(C)[C@]3(C)C[C@H]4O)o2)cc(OC)c1OC [Compound B5, (5-(3,4,5-trimethoxyphenyl)-1,3,4-oxadiazol-2-yl)methyl (4aR,5R,6aS,6bR,8aR,9S,10S,12aR,12bR,14bS)-9-formyl-5,10-dihydroxy-2,2,6a,6b,9,12a-hexamethyl-1,3,4,5,6,6a,6b,7,8,8a,9,10,11,12,12a,12b,13,14b-octadecahydropicene-4a (2H)-carboxylate] | 136 to 138 | 7.36 ± 1.45 | 8.45 ± 2.15 | > 10 | > 10 | 3.81 ± 1.23 |

More lines, now with the values ahead:

| melting point [°C] | IC50 [1] [µM] | IC50 [2] [µM] | IC50 [3] [µM] | IC50 [4] [µM] | IC50 [5] [µM] | SMILES |
| --- | --- | --- | --- | --- | --- | --- |
| 140 to 142 | > 10 | > 10 | > 10 | > 10 | 3.65 ± 1.22 | CC1(C)CC[C@]2(C(=O)OCc3nnc(-c4ccc([N+](=O)[O-])cc4)o3)[C@H](O)C[C@]3(C)C(=CC[C@@H]4[C@@]5(C)CC[C@H](O)[C@@](C)(C=O)[C@@H]5CC[C@]43C)[C@@H]2C1 [Compound B6, (5-(4-nitrophenyl)-1,3,4-oxadiazol-2-yl)methyl (4aR,5R,6aS,6bR,8aR,9S,10S,12aR,12bR,14bS)-9-formyl-5,10-dihydroxy-2,2,6a,6b,9,12a-hexamethyl-1,3,4,5,6,6a,6b,7,8,8a,9,10,11,12,12a,12b,13,14b-octadecahydropicene-4a (2H)-carboxylate] |
| 174 to 176 | > 10 | > 10 | > 10 | 6.12 ± 1.56 | 4.43 ± 1.34 | CC1(C)CC[C@]2(C(=O)OCCn3ncn(-c4ccccc4)c3=O)[C@H](O)C[C@]3(C)C(=CC[C@@H]4[C@@]5(C)CC[C@H](O)[C@@](C)(C=O)[C@@H]5CC[C@]43C)[C@@H]2C1 [Compound C1, 2-(5-oxo-4-phenyl-4,5-dihydro-1H-1,2,4-triazol-1-yl)ethyl (4aR,5R,6aS,6bR,8aR,9S,10S,12aR,12bR,14bS)-9-formyl-5,10-dihydroxy-2,2,6a,6b,9,12a-hexamethyl-1,3,4,5,6,6a,6b,7,8,8a,9,10,11,12,12a,12b,13,14b-octadecahydropicene-4a (2H)-carboxylate] |
| 176 to 178 | > 10 | > 10 | > 10 | > 10 | > 10 | CC1(C)CC[C@]2(C(=O)OCCn3ncn(-c4ccc(F)cc4)c3=O)[C@H](O)C[C@]3(C)C(=CC[C@@H]4[C@@]5(C)CC[C@H](O)[C@@](C)(C=O)[C@@H]5CC[C@]43C)[C@@H]2C1 [Compound C2, 2-(4-(4-fluorophenyl)-5-oxo-4,5-dihydro-1H-1,2,4-triazol-1-yl)ethyl (4aR,5R,6aS,6bR,8aR,9S,10S,12aR,12bR,14bS)-9-formyl-5,10-dihydroxy-2,2,6a,6b,9,12a-hexamethyl-1,3,4,5,6,6a,6b,7,8,8a,9,10,11,12,12a,12b,13,14b-octadecahydropicene-4a (2H)-carboxylate] |
| 166 to 168 | > 10 | > 10 | > 10 | 7.11 ± 1.54 | 3.11 ± 1.02 | CC1(C)CC[C@]2(C(=O)OCCn3ncn(-c4ccc(Cl)cc4)c3=O)[C@H](O)C[C@]3(C)C(=CC[C@@H]4[C@@]5(C)CC[C@H](O)[C@@](C)(C=O)[C@@H]5CC[C@]43C)[C@@H]2C1 [Compound C3, 2-(4-(4-chlorophenyl)-5-oxo-4,5-dihydro-1H-1,2,4-triazol-1-yl)ethyl (4aR,5R,6aS,6bR,8aR,9S,10S,12aR,12bR,14bS)-9-formyl-5,10-dihydroxy-2,2,6a,6b,9,12a-hexamethyl-1,3,4,5,6,6a,6b,7,8,8a,9,10,11,12,12a,12b,13,14b-octadecahydropicene-4a (2H)-carboxylate] |
